Columns and labels:
[1] = system: HIV-1 envelope mediated hemifusion/fusion of HeLa Env^+ and HeLa CD4^+ cells; assay: Hemifusion and cell-cell fusion assays, HeLa Env+ / HeLa CD4+ coculture; type: cell-based, human; details: absence or presence of 70 mM KCl for 3 h; 5 μM AMD3100 (Fig. 4d)
[2] = system: PHA/IL-2 stimulated human lymphoblasts infected with HIVNDK; assay: Plasma membrane depolarization after HIVNDK infection (DiBac4(3), flow cytometry); type: cell-based; details: 1 hour of HIVNDK infection (Fig. 4e)
[3] = system: CD4^+CXCR4^+ cells infected with HIVNL43
CD4^+CXCR4^+ cells = assay: Plasma membrane depolarization of uninfected cells (DiBac4(3), flow cytometry); type: cell-based, human; details: 70 mM KCl for 3 h (Fig. 4b,c)
HIVNDK = type: cell-based, HIV-1; details: activated T-lymphoblasts (Fig. 2a, S2a)
HIVBaL = type: cell-based, HIV-1; details: activated T-lymphoblasts (Fig. 2a, S2a)
[4] = system: HIVNDK infected (PHA/IL-2 stimulated) lymphoblasts; type: cell-based, human; details: HIVNDK (Fig. 6d)
HIVNL43 = assay: Target cell infectivity, Tat-inducible β-galactosidase reporter; type: cell-based, HIV-1; details: HIVNL43, MOI 1, β-Gal reporter, 24 h after infection
[5] = system: CD4^+CXCR4^+ target cells; type: cell-based, human
Experimental: Supplementary FIG. 1 Pannexin-1-dependent ATP release during HIV-1 infection and during HIV-1 Env-mediated fusion. (a) Effect of apyrase and AMD3100 on target cell viability. The viability of cells incubated for 3 hours with different concentrations of apyrase or AMD3100 (as indicated) and then infected with HIV-1NL43 for 2 days, was assessed by the MTT (3-[4,5-dimethylthiazol-2-yl]-2,5-diphenyl tetrazolium bromide) assay, as detailed in Methods. (b) Effects of apyrase and AMD3100 on ATP release detected during HIV-1 infection. […] After 2 hours of infection, ATP release was determined as described in Methods. […] Cell viability in c was assessed as in a (mean±s.e.m; n=3; *P<0.05). Fusion between HIV-1 Env-expressing cells (that also express Tat protein) and CD4^+CXCR4^+ target cells (that contain Tat-inducible β-galactosidase) was determined by measuring β-galactosidase (β-Gal) activity (d), as described in Methods. (e) Effects of Pannexin-1 knockdowns on HIV-1 Env-mediated fusion, as described in (c). Data in (a), (b), (c), (d) and (e) were determined in 3 independent experiments (mean±s.e.m; *P<0.05).

[6] = system: CD4/CXCR4-expressing cells cocultured with Env-expressing cells; assay: HIV-1 envelope mediated conjugate formation (actin polymerization between two interacting cells); details: coculture of Env-expressing and CD4/CXCR4-expressing cells (Fig. 1d)
Experimental: Error bars indicate SD of 3 independent determinations (means±SD; *P<0.05). (d) Effect of ATP depletion by apyrase on HIV-1 envelope mediated actin polymerization. Actin polymerization between two interacting cells was determined in 3 independent experiments (means±SEM; *P<0.05) by fluorescent microscopy (e) Localization of pannexin-1 at the contact site between primary HIV-1-infected lymphoblasts (green) and primary uninfected lymphoblasts, visualized by confocal microscopy.
HeLa cells stably transfected with the Env gene of HIV-1 LAI/IIIB (HeLa Env) and HeLa cells transfected with CD4 (HeLa CD4) were cultured alone or together at a 1:1 ratio in Dulbecco's modified Eagle's medium supplemented with 10% FCS, 2 mM L-glutamine and penicillin/streptomycin (Invitrogen) in the absence or in presence of tested molecules.

Row | Compound | fusion of Env+ and CD4+/CXCR4+ cells [1] | plasma membrane depolarization induced by HIV-1 infection [2] | replication of X4-tropic HIV (HIVNDK) | replication of R5-tropic HIV (HIVBaL) | CD4+ T cell depletion / death of activated CD4+ T lymphoblasts (7-AAD uptake) [4] | viral infection of lymphoblasts (intracellular p24 antigen) [4] | other results
1 | c1cc(CN2CCCNCCNCCCNCC2)ccc1CN1CCCNCCNCCCNCC1 [AMD3100] | reduced | abolished |  |  |  |  | ATP release during HIV-1 infection [3]: prevented ATP release
2 | [Cl-].[K+] [KCl] | enhanced the fusion |  |  |  |  |  | plasma membrane depolarization (CD4^+CXCR4^+ cells): strongly induced membrane depolarization
3 | Nc1ncnc2c1ncn2[C@@H](C=O)O[C@@H](C=O)COP(=O)(O)OP(=O)(O)OP(=O)(O)O [OxATP, oxidized ATP] |  |  | blocked the replication | blocked the replication |  |  | 
4 | Cc1nc(N=Nc2ccc(S(=O)(=O)O)cc2S(=O)(=O)O)c(COP(=O)(O)O)c(C=O)c1O [PPADS] |  |  | blocked the replication | blocked the replication | reduces | reduces viral infection | 
5 | Cc1ccc(C(=O)Nc2ccc(S(=O)(=O)O)c3cc(S(=O)(=O)O)cc(S(=O)(=O)O)c23)cc1NC(=O)c1cccc(NC(=O)Nc2cccc(C(=O)Nc3cc(C(=O)Nc4ccc(S(=O)(=O)O)c5cc(S(=O)(=O)O)cc(S(=O)(=O)O)c45)ccc3C)c2)c1 [suramin] |  |  | blocked the replication | blocked the replication | reduces | reduces viral infection | 
6 | apyrase |  | abolished |  |  |  |  | HIV-1 infection (target cell infectivity) (HIVNL43): prevented HIV-1 infection; toxicity / target cell viability [5]: non-toxic; conjugate formation revealed by actin polymerization between two interacting cells [6]: abolished conjugate formation

— patent US20130156791A1, “METHODS AND PHARMACEUTICAL COMPOSITIONS FOR THE TREATMENT OF HIV-1 INFECTIONS” (priority 2010, published 2013)
